For this assay, the target named is T1, PolyNic (polygenomic nicotinamidase).
T1 construct: 588 bp PCR product in pET-46 Ek/LIC, expressed in E. coli Rosetta 2 (DE3); dimer
In words: HPLC nicotinamidase assay, Morrison fit, NAM as substrate (Ki […] with PZA as substrate). Format: biochemical.

The term Ki denotes a measure of affinity in units of concentration, obtained from inhibition or displacement. `O=Cc1cccnc1` [nicotinaldehyde] displayed a Ki of 180 nM. That is a sub-micromolar value.

Values taken from PMC5147024, “Combined Whole-Cell High-Throughput Functional Screening for Identification of New Nicotinamidases/Pyrazinamidases in Metagenomic/Polygenomic Libraries” (Frontiers in Microbiology, 2016).
